Among the test systems are DLD-1 colon; DMS 273 small cell lung; KM12 colon; M14 melanoma; NCI/ADR-RES ovarian; OVCAR-5 ovarian; RPMI-8226 leukemia; SF-268 CNS; TK-10 renal; UACC-62 melanoma.
Common to all, as to experiment: growth of human tumour cells (NCI), 48 h

The structures appear in SMILES notation. “And” between values parts separate entries of the source, which are not always exact repeats. Equal values may be shown once.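 Following 48 hours of exposure in 96-well plates, responses at five concentrations were used to interpolate endpoints linearly. GI50 = concentration required for 50% inhibition of growth. TGI marks complete inhibition of growth.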

Regarding `O=C1C(CN(Cc2ccccc2)Cc2ccccc2)CCCC1CN(Cc1ccccc1)Cc1ccccc1` (configuration not stated), the TGI in the experiment on DLD-1 colon is 10.4 µM and > 100 µM; with DMS 273 small cell lung it was 33.3 µM and > 100 µM; with KM12 colon, > 100 µM; in the experiment on M14 melanoma, 31.1 µM and > 100 µM; with NCI/ADR-RES ovarian, > 100 µM; with OVCAR-5 ovarian it was > 100 µM. The TGI in the experiment on RPMI-8226 leukemia is > 100 µM; in the experiment on SF-268 CNS it was 53 µM and > 100 µM; in the experiment on TK-10 renal it was 28.3 µM and > 100 µM; in the experiment on UACC-62 melanoma, 45.2 µM and > 100 µM. The GI50 with DMS 273 small cell lung was 17.1 µM and > 100 µM; in the experiment with KM12 colon it was 40.2 µM and > 100 µM; in the experiment with M14 melanoma, 17.2 µM and 71.7 µM; with SF-268 CNS it was 33.3 µM and > 100 µM; in the experiment on TK-10 renal, 14.7 µM and > 100 µM; in the experiment with UACC-62 melanoma, 29.2 µM and > 100 µM.

In the case of `COC(=O)C(=C\Sc1ccccc1)/C=C/C(=O)OC(C)(C)C`, the TGI in the experiment with DLD-1 colon came out at 7.59 µM; in the experiment on DMS 273 small cell lung, 24.5 µM; in the experiment on KM12 colon it was 24.3 µM; with M14 melanoma, 21.2 µM; in the experiment with OVCAR-5 ovarian, 28.8 µM; with RPMI-8226 leukemia, 8.48 µM. In addition, the TGI in the experiment with SF-268 CNS turned out to be 31.8 µM; in the experiment with TK-10 renal it was 30.8 µM; with UACC-62 melanoma, 28.8 µM.

For the compound `O=S1Cc2ccccc2CS1` (configuration not stated), the TGI was 33.5 µM with DLD-1 colon; 29.8 µM in the experiment on DMS 273 small cell lung; > 100 µM with KM12 colon; 28.3 µM in the experiment on M14 melanoma; 56.9 µM in the experiment on OVCAR-5 ovarian; 38.2 µM in the experiment on RPMI-8226 leukemia. Also, the TGI in the experiment with SF-268 CNS is > 100 µM; in the experiment with TK-10 renal it was 55.6 µM; in the experiment with UACC-62 melanoma, 28.9 µM.

`Cc1ccc(/C=C/C(=O)c2sc(C(N)=S)nc2C)cc1`: the TGI in the experiment with DLD-1 colon, in the experiment with DMS 273 small cell lung, in the experiment with KM12 colon, in the experiment on OVCAR-5 ovarian, in the experiment with RPMI-8226 leukemia and in the experiment with SF-268 CNS was > 100 µM each time. In addition, the TGI with TK-10 renal and with UACC-62 melanoma was > 100 µM in each case.

As for `Cc1cc(=O)[nH]c(CNC(=O)c2cccc3ccccc23)n1`, the TGI in the experiment with DLD-1 colon, in the experiment on DMS 273 small cell lung, in the experiment with M14 melanoma, in the experiment with SF-268 CNS, with TK-10 renal and in the experiment on UACC-62 melanoma was > 100 µM in each case.

In the case of `COc1ccccc1/C=C1\CCC(CN(C)C)C1=O` (configuration not stated), the TGI with DLD-1 colon turned out to be 4.98 µM; with DMS 273 small cell lung, 20.5 µM; with KM12 colon, 12.4 µM; in the experiment with M14 melanoma it was 11.1 µM; in the experiment on NCI/ADR-RES ovarian, 90.3 µM; in the experiment with OVCAR-5 ovarian, 24.2 µM. The TGI with RPMI-8226 leukemia was determined as 21.1 µM; in the experiment on SF-268 CNS, 29.7 µM; with TK-10 renal it was 15.7 µM; with UACC-62 melanoma it was 13.9 µM.

Regarding `COC(=O)C1C(=O)O[C@@H](c2ccc(OC)cc2)C1C(=O)OC` (some centres not stated), the TGI with DLD-1 colon, in the experiment on DMS 273 small cell lung, in the experiment with KM12 colon, with M14 melanoma, in the experiment on OVCAR-5 ovarian and in the experiment on RPMI-8226 leukemia was > 100 µM throughout. Moreover, the TGI in the experiment on SF-268 CNS, in the experiment on TK-10 renal and in the experiment on UACC-62 melanoma was > 100 µM in each case.

`CC(C)Cc1ccc(C(C)/C=C2\CCC(CN3CCOCC3)C2=O)cc1` (configuration not stated): the TGI stood at 9.36 µM with DLD-1 colon; 16.9 µM in the experiment with KM12 colon; 15.9 µM in the experiment with M14 melanoma; 29.3 µM with NCI/ADR-RES ovarian; 35.9 µM in the experiment with OVCAR-5 ovarian; 15.9 µM in the experiment with SF-268 CNS. Further, the TGI in the experiment on TK-10 renal is 14.9 µM; in the experiment with UACC-62 melanoma, 25.6 µM.

Regarding `CC12Oc3ccc4ccccc4c3C1c1c(ccc3ccccc13)O2` (configuration not stated), the TGI in the experiment on DLD-1 colon, in the experiment with DMS 273 small cell lung, with KM12 colon, with M14 melanoma, in the experiment with OVCAR-5 ovarian and in the experiment with SF-268 CNS was > 100 µM each time. Further, the TGI in the experiment with TK-10 renal and in the experiment on UACC-62 melanoma was > 100 µM each time.

`Cn1c(O)c(C=N)c(=O)n(C)c1=O`: the TGI in the experiment with DLD-1 colon, in the experiment on KM12 colon, in the experiment on M14 melanoma, with OVCAR-5 ovarian, with RPMI-8226 leukemia and in the experiment with SF-268 CNS was > 100 µM each time. The TGI in the experiment with TK-10 renal is > 100 µM.

Take `CC(=O)N(/N=C\c1ccc([N+](=O)[O-])cc1)c1ccccc1`: the TGI in the experiment on DLD-1 colon, in the experiment on DMS 273 small cell lung, with KM12 colon, in the experiment with M14 melanoma, in the experiment on OVCAR-5 ovarian and with RPMI-8226 leukemia was > 100 µM each time. Further, the TGI in the experiment on SF-268 CNS, with TK-10 renal and in the experiment with UACC-62 melanoma was > 100 µM throughout.

For the compound `CC1C(=O)CCC1C(Sc1ccccc1)(Sc1ccccc1)Sc1ccccc1` (configuration not stated), the TGI in the experiment with DLD-1 colon is > 100 µM; in the experiment on DMS 273 small cell lung, > 100 µM; with KM12 colon, > 100 µM; with M14 melanoma, > 100 µM; in the experiment on OVCAR-5 ovarian, > 100 µM; in the experiment with RPMI-8226 leukemia, 40.6 µM. Also, the TGI in the experiment on SF-268 CNS was 46.3 µM; in the experiment with TK-10 renal it was > 100 µM; with UACC-62 melanoma, > 100 µM.

With `COC1OC(COCc2ccc(Cl)cc2)C(OCc2ccc(Cl)cc2)C1O` (configuration not stated), the TGI in the experiment on DLD-1 colon is 34.1 µM; in the experiment on DMS 273 small cell lung it was 31.7 µM; with KM12 colon it was 29.3 µM; in the experiment with M14 melanoma, 31 µM; in the experiment with OVCAR-5 ovarian, 30 µM; in the experiment with RPMI-8226 leukemia, > 100 µM. Also, the TGI with SF-268 CNS amounted to 35.5 µM; in the experiment on TK-10 renal, 67.4 µM; with UACC-62 melanoma it was 31.9 µM.
